Laboratory results published in US20240425464A1, “Substituted Monohydrazides as Potent Antifungal Agents” (University of Kentucky Research Foundation, priority 2023, published 2024).
In brackets after ≈: the same amount, converted by molar mass. Where two headings read alike, the source gives them in different places.

What was measured:
Assay in all cases: MIC determination by in vitro antifungal assay
Type in all cases: cell-based, Candida auris
C. auris AR Bank #381 = conditions: C. auris AR Bank # 381 (Table 2B)
Procedure: (§1) The antifungal agent amphotericin B (AmB) was purchased from VWR (Radnor PA, USA). AmB was dissolved in DMSO at a final concentration of 5 mg/mL and was stored at −20° C., protected from light. Candida albicans American Type Culture Collection (ATCC) 10231 (strain A), C. albicans ATCC 64124 (B), and C. albicans ATCC MYA-2876 (C) were obtained from Utah State University. C. albicans ATCC 90819 (D), C. albicans ATCC MYA-2310 (E), C. albicans ATCC MYA-1237 (F), C. albicans ATCC MYA-1003 (G), Candida glabrata ATCC 2001 (H), Candida krusei ATCC 6258 (I), Candida parapsilosis ATCC 22019 (J), Cryptococcus neoformans ATCC MYA-895 (M), Aspergillus terreus ATCC MYA-3633 (N), and Aspergillus flavus ATCC MYA-3631 (0) were obtained from the American Type Culture Collection (ATCC; Manassas, VA, USA). Aspergillus nidulans ATCC 38163 (P) was obtained from University of Kentucky. Clinically derived Aspergillus fumigatus NRRL 163 (Q), A. fumigatus NRRL 5109 (R), and A. fumigatus NRRL 6113 (S) were obtained from Northern Regional Research Laboratory (NRRL). Candida auris 384 (K), C. auris 390 (L), and fungal strains 381-400 (including 10 C. auris (AR Bank #381-390), 3 Candida duobushaemulonii (AR Bank #391, AR Bank #392, and AR Bank #394), 2 Candida haemulonii (AR Bank #393 and AR Bank #395), 1 Kodameae ohmeri (AR Bank #396), 1 C. krusei (AR Bank #397), 1 Candida lusitaniae (AR Bank #398), and 2 Saccharomyces cerevisiae strains (AR Bank #399 and AR Bank #400)) were part of a larger fungal library from the AR Bank maintained by the Centers for Disease Control and Prevention (CDC; Atlanta, GA, USA). Filamentous fungi and yeasts were cultivated at 35° C. in RPMI 1640 medium (with L-glutamine, without sodium bicarbonate, Sigma-Aldrich, St. Louis, MO) buffered to a pH of 7.0 with 0.165 M morpholinepropanesulfonic acid (MOPS) buffer (Sigma-Aldrich). For cytotoxicity assays, HepG2 and the mouse macrophage cell line J774A.1 were obtained from University of Kentucky. The human embryonic kidney cell line, HEK-293, was bought from the ATCC. Mammalian cells were grown in Dulbecco's Modified Eagle's Medium (DMEM) (from VWR) with 10% fetal bovine serum (FBS) (from VWR) and 1% Pen/Strep (from ATCC). Cell lines were cultured at 37° C. with 5% CO2 and passaged by trypsinization with 0.05% trypsin: 0.53 mM EDTA (from Sigma-Aldrich).
(§2) From the actively growing yeast culture, 100 µL were then transferred to 900 μL of RPMI 1640 medium and re-adjusted to achieve OD600 of 0.12 (˜1×10^6 CFU/mL). The cell suspension was further diluted to achieve 1:100 in RPMI 1640 medium.

C. auris AR Bank #382 = conditions: C. auris AR Bank # 382 (Table 2B)
Procedure: as §1, §2

C. auris AR Bank #383 = conditions: C. auris AR Bank # 383 (Table 2B)
Procedure: as §1, §2

C. auris AR Bank #385 = conditions: C. auris AR Bank # 385 (Table 2B)
Procedure: as §1, §2

C. auris AR Bank #386 = conditions: C. auris AR Bank # 386 (Table 2B)
Procedure: as §1, §2

C. auris AR Bank #387 = conditions: C. auris AR Bank # 387 (Table 2B)
Procedure: as §1, §2

C. auris AR Bank #388 = conditions: C. auris AR Bank # 388 (Table 2B)
Procedure: as §1, §2

C. auris AR Bank #389 = conditions: C. auris AR Bank # 389 (Table 2B)
Procedure: as §1, §2

[1] = Candidozyma auris, read-out: MIC

Compound | MIC (C. auris AR Bank #381) | MIC (C. auris AR Bank #382) | MIC (C. auris AR Bank #383) | MIC (C. auris AR Bank #385) | MIC (C. auris AR Bank #386) | MIC (C. auris AR Bank #387) | MIC (C. auris AR Bank #388) | MIC (C. auris AR Bank #389) | MIC (C. auris AR Bank #381; [1]) | MIC (C. auris AR Bank #382; [1]) | MIC (C. auris AR Bank #383; [1]) | MIC (C. auris AR Bank #385; [1]) | MIC (C. auris AR Bank #386; [1]) | MIC (C. auris AR Bank #387; [1]) | MIC (C. auris AR Bank #388; [1]) | MIC (C. auris AR Bank #389; [1])
O=C(NNc1ccc(Cl)cc1)c1cccc(F)n1 [Compound 5e] | 7.8 μg/mL^−1 | 7.8 μg/mL^−1 | 3.9 μg/mL^−1 | 3.9 μg/mL^−1 | 7.8 μg/mL^−1 | 7.8 μg/mL^−1 | 7.8 μg/mL^−1 | 7.8 μg/mL^−1 |  |  |  |  |  |  |  | 
O=C(NNc1ccc(F)cc1F)c1cccc(F)n1 [Compound 5g] |  |  |  |  |  |  |  |  | 3.9 µg/mL (≈ 14.6 µM) | 0.98 µg/mL (≈ 3.67 µM) | 1.95 µg/mL (≈ 7.3 µM) | 3.9 µg/mL (≈ 14.6 µM) | 1.95 µg/mL (≈ 7.3 µM) | 1.95 µg/mL (≈ 7.3 µM) | 3.9 µg/mL (≈ 14.6 µM) | 3.9 µg/mL (≈ 14.6 µM)
O=C(NNc1ccc(F)cc1)c1cccc(Br)n1 [Compound 6d] |  |  |  |  |  |  |  |  | 1.95 µg/mL (≈ 6.29 µM) | 0.98 µg/mL (≈ 3.16 µM) | 1.95 µg/mL (≈ 6.29 µM) | 0.98 µg/mL (≈ 3.16 µM) | 1.95 µg/mL (≈ 6.29 µM) | 0.98 µg/mL (≈ 3.16 µM) | 0.98 µg/mL (≈ 3.16 µM) | 1.95 µg/mL (≈ 6.29 µM)
O=C(NNc1ccc(F)cc1)c1ncc(F)cc1F [Compound 7d] |  |  |  |  |  |  |  |  | 1.95 µg/mL (≈ 7.3 µM) | 0.98 µg/mL (≈ 3.67 µM) | 1.95 µg/mL (≈ 7.3 µM) | 0.49 µg/mL (≈ 1.83 µM) | 0.98 µg/mL (≈ 3.67 µM) | 0.49 µg/mL (≈ 1.83 µM) | 0.49 µg/mL (≈ 1.83 µM) | 1.95 µg/mL (≈ 7.3 µM)
O=C(NNc1ccc(Cl)cc1)c1ncc(F)cc1F [Compound 7e] | 7.8 μg/mL^−1 | 15.6 μg/mL^−1 | 3.9 μg/mL^−1 | 7.8 μg/mL^−1 | 15.6 μg/mL^−1 | 15.6 μg/mL^−1 | 7.8 μg/mL^−1 | 7.8 μg/mL^−1 |  |  |  |  |  |  |  | 
COc1ccc(NNC(=O)c2ncc(F)cc2F)cc1 [Compound 7f] |  |  |  |  |  |  |  |  | 0.98 µg/mL (≈ 3.51 µM) | 0.98 µg/mL (≈ 3.51 µM) | 0.98 µg/mL (≈ 3.51 µM) | 0.49 µg/mL (≈ 1.75 µM) | 0.98 µg/mL (≈ 3.51 µM) | 0.98 µg/mL (≈ 3.51 µM) | 0.98 µg/mL (≈ 3.51 µM) | 0.98 µg/mL (≈ 3.51 µM)
O=C(NNc1ccc(F)cc1F)c1ncc(F)cc1F [Compound 7g] |  |  |  |  |  |  |  |  | 3.9 µg/mL (≈ 13.7 µM) | 1.95 µg/mL (≈ 6.84 µM) | 3.9 µg/mL (≈ 13.7 µM) | 0.98 µg/mL (≈ 3.44 µM) | 1.95 µg/mL (≈ 6.84 µM) | 1.95 µg/mL (≈ 6.84 µM) | 3.9 µg/mL (≈ 13.7 µM) | 3.9 µg/mL (≈ 13.7 µM)
O=C(NNc1ccc(F)cc1)c1nc(F)ccc1F [Compound 8d] |  |  |  |  |  |  |  |  | 0.98 µg/mL (≈ 3.67 µM) | 0.98 µg/mL (≈ 3.67 µM) | 0.98 µg/mL (≈ 3.67 µM) | 0.24 µg/mL (≈ 0.898 µM) | 0.98 µg/mL (≈ 3.67 µM) | 0.49 µg/mL (≈ 1.83 µM) | 0.49 µg/mL (≈ 1.83 µM) | 0.98 µg/mL (≈ 3.67 µM)
